Source: ChEMBL document CHEMBL3046216, “Synthesis, biological evaluation and QSAR study of a series of substituted quinazolines as antimicrobial agents” (2013)
In brackets after ≈: the same amount, converted by molar mass. Activity calls are given as the source filed them. The calls are words filed in the database; no cut-off is given here.

Legend:
Type in all cases: functional
Bacillus subtilis = assay: Antimicrobial activity against Bacillus subtilis ATCC 6633 assessed as growth inhibition after 24 hr by NCCLS broth dilution method
Staphylococcus aureus = assay: Antimicrobial activity against Staphylococcus aureus ATCC 25923 assessed as growth inhibition after 24 hr by NCCLS broth dilution method
Escherichia coli = assay: Antimicrobial activity against Escherichia coli ATCC 25922 assessed as growth inhibition after 24 hr by NCCLS broth dilution method
Pseudomonas aeruginosa = assay: Antimicrobial activity against Pseudomonas aeruginosa ATCC 27853 assessed as growth inhibition after 24 hr by NCCLS broth dilution method

| MIC (Bacillus subtilis) | MIC (Bacillus subtilis; ATCC 6633, 24 h) | MIC (Staphylococcus aureus) | MIC (Staphylococcus aureus; ATCC 25923, 24 h) | MIC (Escherichia coli) | MIC (Escherichia coli; ATCC 25922, 24 h) | MIC (Pseudomonas aeruginosa) | MIC (Pseudomonas aeruginosa; ATCC 27853, 24 h) | Compound |
| --- | --- | --- | --- | --- | --- | --- | --- | --- |
| inactive | 12.5 µg/mL (≈ 22.6 µM) | inactive | 25 µg/mL (≈ 45.2 µM) | inactive | 50 µg/mL (≈ 90.3 µM) | inactive | 50 µg/mL (≈ 90.3 µM) | Cc1ccc(NC(=O)Nc2cc3c(Sc4nnc(-c5cccnc5)o4)ncnc3cc2N2CCN(C)CC2)cc1 |
| inactive | 25 µg/mL (≈ 44 µM) | inactive | 6.25 µg/mL (≈ 11 µM) | inactive | 12.5 µg/mL (≈ 22 µM) | inactive | 50 µg/mL (≈ 88.1 µM) | CN1CCN(c2cc3ncnc(Sc4nnc(-c5cccnc5)o4)c3cc2NC(=O)NCCc2ccccc2)CC1 |
| inactive | 12.5 µg/mL (≈ 24.2 µM) | inactive | 12.5 µg/mL (≈ 24.2 µM) | inactive | 100 µg/mL (≈ 193 µM) | inactive | 75 µg/mL (≈ 145 µM) | O=C(Nc1ccc(-c2ccccc2)cc1)Nc1ccc2ncnc(Sc3nnc(-c4cccnc4)o3)c2c1 |
| inactive | 50 µg/mL (≈ 106 µM) | inactive | 12.5 µg/mL (≈ 26.6 µM) | inactive | 50 µg/mL (≈ 106 µM) | inactive | 75 µg/mL (≈ 160 µM) | O=C(NCCc1ccccc1)Nc1ccc2ncnc(Sc3nnc(-c4cccnc4)o3)c2c1 |
| inactive | 75 µg/mL (≈ 164 µM) | inactive | 50 µg/mL (≈ 109 µM) | inactive | 50 µg/mL (≈ 109 µM) | inactive | 100 µg/mL (≈ 219 µM) | S=C(Nc1ccccc1)Nc1ccc2ncnc(Sc3nnc(-c4cccnc4)o3)c2c1 |
| inactive | 50 µg/mL (≈ 110 µM) | inactive | 25 µg/mL (≈ 54.9 µM) | inactive | 25 µg/mL (≈ 54.9 µM) | inactive | 75 µg/mL (≈ 165 µM) | Cc1ccccc1NC(=O)Nc1ccc2ncnc(Sc3nnc(-c4cccnc4)o3)c2c1 |
| inactive | 1.56 µg/mL (≈ 4.67 µM) | inactive | 1.56 µg/mL (≈ 4.67 µM) | inactive | 6.25 µg/mL (≈ 18.7 µM) | inactive | 12.5 µg/mL (≈ 37.4 µM) | CC1(C)S[C@@H]2[C@H](NC(=O)Cc3ccccc3)C(=O)N2[C@H]1C(=O)O [PENICILLIN G] |
| inactive | 12.5 µg/mL (≈ 21.8 µM) | inactive | 6.25 µg/mL (≈ 10.9 µM) | inactive | 50 µg/mL (≈ 87.1 µM) | inactive | 25 µg/mL (≈ 43.5 µM) | CN1CCN(c2cc3ncnc(Sc4nnc(-c5cccnc5)o4)c3cc2NC(=O)Nc2cccc(Cl)c2)CC1 |
| inactive | 50 µg/mL (≈ 102 µM) | inactive | 25 µg/mL (≈ 50.8 µM) | inactive | 25 µg/mL (≈ 50.8 µM) | inactive | 50 µg/mL (≈ 102 µM) | S=C(Nc1ccc2ncnc(Sc3nnc(-c4cccnc4)o3)c2c1)Nc1ccccc1Cl |
| inactive | 25 µg/mL (≈ 42.7 µM) | inactive | 12.5 µg/mL (≈ 21.3 µM) | inactive | 25 µg/mL (≈ 42.7 µM) | inactive | 50 µg/mL (≈ 85.4 µM) | COc1ccccc1NC(=S)Nc1cc2c(Sc3nnc(-c4cccnc4)o3)ncnc2cc1N1CCN(C)CC1 |
| inactive | 100 µg/mL (≈ 181 µM) | inactive | 12.5 µg/mL (≈ 22.6 µM) | inactive | 50 µg/mL (≈ 90.3 µM) | inactive | 100 µg/mL (≈ 181 µM) | Cc1ccccc1NC(=O)Nc1cc2c(Sc3nnc(-c4cccnc4)o3)ncnc2cc1N1CCN(C)CC1 |
| inactive | 50 µg/mL (≈ 106 µM) | inactive | 75 µg/mL (≈ 159 µM) | inactive | 25 µg/mL (≈ 53 µM) | inactive | 100 µg/mL (≈ 212 µM) | Cc1ccccc1NC(=S)Nc1ccc2ncnc(Sc3nnc(-c4cccnc4)o3)c2c1 |
| inactive | 12.5 µg/mL (≈ 23.2 µM) | inactive | 25 µg/mL (≈ 46.3 µM) | inactive | 25 µg/mL (≈ 46.3 µM) | inactive | 50 µg/mL (≈ 92.7 µM) | CN1CCN(c2cc3ncnc(Sc4nnc(-c5cccnc5)o4)c3cc2NC(=O)Nc2ccccc2)CC1 |
| inactive | 12.5 µg/mL (≈ 21.2 µM) | inactive | 25 µg/mL (≈ 42.4 µM) | inactive | 50 µg/mL (≈ 84.7 µM) | inactive | 50 µg/mL (≈ 84.7 µM) | CN1CCN(c2cc3ncnc(Sc4nnc(-c5cccnc5)o4)c3cc2NC(=S)Nc2ccc(Cl)cc2)CC1 |
| inactive | 75 µg/mL (≈ 159 µM) | inactive | 75 µg/mL (≈ 159 µM) | inactive | 50 µg/mL (≈ 106 µM) | inactive | 100 µg/mL (≈ 212 µM) | Cc1cccc(NC(=S)Nc2ccc3ncnc(Sc4nnc(-c5cccnc5)o4)c3c2)c1 |
| inactive | 12.5 µg/mL (≈ 26.3 µM) | inactive | 25 µg/mL (≈ 52.5 µM) | inactive | 25 µg/mL (≈ 52.5 µM) | inactive | 75 µg/mL (≈ 158 µM) | O=C(Nc1ccc2ncnc(Sc3nnc(-c4cccnc4)o3)c2c1)Nc1ccccc1Cl |
